We go through two sequences from paper PMC6315844, “Two Novel Multi-Functional Peptides from Meat and Visceral Mass of Marine Snail Neptunea arthritica cumingii and Their Activities In Vitro and In Vivo” (Marine Drugs, 2018).

Data set [1] deals with α-amylase (from Bacillus subtilis). The data set is described as follows: α-Amylase inhibitory activity. Type of data set: biochemical. The following applies: for α-Amylase Inhibitory Activity (%): fractions purified from M-F and VM-F using HILIC, all at the same concentration (not given), n = 3, mean ± SD; for EC50: natural purified peptide, Figure 3a, tests repeated three times, read-out: EC50 values of active peptides: α-amylase. An excerpt: (§1) DPPH, angiotensin-converting enzyme (0.25 U·mL^−1, from the rabbit lung), N-hippuryl-His-Leu hydrate (HHL), hippuric acid, and amino acid standards were purchased from Sigma-Aldrich (Shanghai, China). α-Glucosidase protease (50 U/mg, from yeast), α-amylase protease (50 U/mg, from Bacillus subtilis), acarbose, 4-nitrophenyl-β-D-galactopyranoside, 6-aminoquinolyl-N-hydroxysuccinimidyl carbamate (AQC), ribonuclease (13,700 Da, from the bovine pancreas), aprotinin hydrochloride (6511 Da, from the bovine lung), angiotensin II (1046 Da), and L-serine (105 Da) were purchased from Yuanye Biological Technology Co. (Shanghai, China). Trypsin (250 U/mg), pepsin (250 U/mg), Sephadex G25 gel, nifedipine, and vitamin C were purchased from Solarbio (Beijing, China). Transgenic zebrafish Tg (krt4:NTR-hKikGR)^cy17 are maintained in our lab. All chemicals and reagents used for HPLC were of chromatographic grade and other chemicals and reagents were of analytical grade.
(§2) α-Amylase and α-glucosidase inhibitory activities were assayed as described by Uraipong et al.. Acarbose was used as a positive control. The inhibitory activity of active peptides was expressed as the EC50 value.

In data set [2] the target is α-glucosidase (from yeast). The data set can be described thus: α-Glucosidase inhibitory activity. Conditions: natural purified peptide; Figure 3a; tests repeated three times; read-out: EC50 values of active peptides: α-glucosidase. Type of data set: biochemical.
Source text: as §1, §2

A short description of data set [3]: DPPH radical scavenging activity. The following applies: for DPPH Radical Scavenging Activity (%): fractions purified from M-F and VM-F using HILIC, all at the same concentration (not given), n = 3, mean ± SD; for EC50: natural purified peptide, Figure 3a, tests repeated three times, read-out: EC50 values of active peptides: DPPH. The procedure:
The DPPH radical scavenging activity of the two peptide fractions was determined according to the methods described by Lee et al.. Vitamin C was used as a positive control. The EC50 values for DPPH radical scavenging was determined.
For orientation: DPPH is a stable violet radical that fades when it is reduced.

Data set [4] can be described thus: Thermal stability of synthetic peptides (DPPH and ACE activity retained). Conditions: incubated at 20, 40, 60 and 80 °C, samples 90 to 1800 μg/mL, p > 0.05. Type of data set: physicochemical.
Description: A series of samples with concentration range from 90 μg/mL (corresponding to 69.28 μM and 93.26 μM for [sequence] and [sequence], respectively) to 1800μg/mL were used in stability analysis.
In data set [5] the test system is Tg (krt4:NTR-hKikGR)cy17 zebrafish. The data set is described as follows: In vivo antioxidant activity in MTZ-treated transgenic zebrafish embryos (skin fluorescent spots). The following applies: 10 mM MTZ, 24 h, 28 °C, n = 10. Set-up: species or system zebrafish (Danio rerio). An excerpt: For Tg (krt4:NTR-hKikGR)^cy17 zebrafish, MTZ treatment can lead to ROS overproduction, apoptosis of skin cells, and reduction of fluorescence spots on skin; thus, this model is used to assess ROS scavenging capacity of sample by measuring the growth rate of fluorescent spots (FS) on the skin of Tg (krt4:NTR-hKikGR)^cy17 transgenic zebrafish. Sample with antioxidant activity can remove ROS from transgenic zebrafish and prevent the skin cell apoptosis.
The number of fluorescence spots on the skin will increase after incubation with antioxidant. Thus, we can evaluate the ROS scavenging ability of samples on the basis of changes in the number of fluorescence spots compared with the MTZ-treatment. The in vivo antioxidant activity of the active peptides was evaluated according to previously described methods with some modification using the transgenic zebrafish line Tg (krt4:NTR-hKikGR)^cy17. Twenty-four-hour-old transgenic zebrafish embryos were added to 24-well cell culture plates (10 embryos/well) and incubated with 2 mL of 10 mM MTZ (dissolved in fish water) and active peptides for 24 h at 28 °C. […] After incubation, zebrafish embryos were anesthetized with tricaine (0.16%, w/v), and fluorescence was observed using an FSX100 Bio Imaging Navigator instrument. FS were counted using ImagePro-Plus, and the in vivo antioxidant activity (%) of active peptides was determined by Equation 1. […]

A short description of data set [6]: Hydroxyl radical scavenging activity. Conditions: natural purified peptide; Figure 3a; tests repeated three times; read-out: EC50 values of active peptides: OH. Here is the method:
The hydroxyl radical scavenging activity of peptide fractions was determined according to the methods described by Dong et al.. Vitamin C was used as a positive control. The hydroxyl radical activity of active peptides was evaluated by EC50.

For data set [7] the following is noted: synthetic peptides; simulated gastrointestinal digestion; samples 90 to 1800 μg/mL; p > 0.05. The procedure: A series of samples with concentration range from 90 μg/mL (corresponding to 69.28 μM and 93.26 μM for […] and […], respectively) to 1800μg/mL were used in stability analysis.
Thermal stability and gastrointestinal digestion stability of two synthetic peptides were determined according to Chen et al.. The incubated temperature for peptide solutions was set as 20, 40, 60, and 80 °C, respectively. DPPH radical scavenging activities and ACE inhibitory activities of the peptide solutions were measured as the above description.

Data set [8] is described as follows: Ferric reducing capacity (reducing power, FRAP). The following applies: natural purified peptide, Figure 3a, tests repeated three times, read-out: EC50 values of active peptides: FRAP. Here is the method: The reducing power of the peptide fractions was assayed as described by Moayedi et al.. Vitamin C was used as a positive control. The reducing power of active peptides was assayed by determining EC50 values.

No end group written: not given here.

By EC50 is commonly meant the concentration at which the effect is half-maximal. “YIAEDAER [VM-P7, Tyr-Ile-Ala-Glu-Asp-Ala-Glu-Arg]”: the “α-Amylase Inhibitory Activity (%)” value in data set [1] worked out at 53.85 ± 0.92%. Moreover, the 50% effective concentration (EC50) in data set [1] worked out at 942 µM; in data set [2], 823 µM; in data set [3], 185 µM; in data set [6], 814 µM; in data set [8] it was 856 µM. Further, in data set [3], the “DPPH Radical Scavenging Activity (%)” value turned out to be 82.60 ± 0.86%. Besides, the “effect of thermal treatment on EC50 values of DPPH radical scavenging and ACE inhibitory activities” value in data set [4] is “have thermal and gastrointestinal stability”. Further, the “number of fluorescent spots (FS) compared with negative control (MTZ without peptides)” value in data set [5] (low concentration) is given as “no significant difference”. Besides, the “effect of gastrointestinal digestion treatment on EC50 values of DPPH radical scavenging and ACE inhibitory activities” value in data set [7] was “have thermal and gastrointestinal stability”.
On to “YSQLENEFDR [M-P6, Tyr-Ser-Gln-Leu-Glu-Asn-Glu-Phe-Asp-Arg]”, for which, in data set [1], the “α-Amylase Inhibitory Activity (%)” value turned out to be 56.15 ± 1.64%. Further, the 50% effective concentration (EC50) in data set [1] stood at 692 µM; in data set [2], 589 µM; in data set [3] it was 96.7 µM; in data set [6], 234 µM; in data set [8], 430 µM. The “DPPH Radical Scavenging Activity (%)” value in data set [3] was 91.87 ± 0.62%. For the same sequence, the “effect of thermal treatment on EC50 values of DPPH radical scavenging and ACE inhibitory activities” value in data set [4] was “have thermal and gastrointestinal stability”. In addition, the “number of fluorescent spots (FS) compared to the control group (no MTZ or peptides)” value in data set [5] (high concentration) was “more FS were detected”. Moreover, the “effect of gastrointestinal digestion treatment on EC50 values of DPPH radical scavenging and ACE inhibitory activities” value in data set [7] is “have thermal and gastrointestinal stability”.
